One series deals with T1, AR (Rattus norvegicus, UniProt P15207).
T1 sequence (P15207 1-902): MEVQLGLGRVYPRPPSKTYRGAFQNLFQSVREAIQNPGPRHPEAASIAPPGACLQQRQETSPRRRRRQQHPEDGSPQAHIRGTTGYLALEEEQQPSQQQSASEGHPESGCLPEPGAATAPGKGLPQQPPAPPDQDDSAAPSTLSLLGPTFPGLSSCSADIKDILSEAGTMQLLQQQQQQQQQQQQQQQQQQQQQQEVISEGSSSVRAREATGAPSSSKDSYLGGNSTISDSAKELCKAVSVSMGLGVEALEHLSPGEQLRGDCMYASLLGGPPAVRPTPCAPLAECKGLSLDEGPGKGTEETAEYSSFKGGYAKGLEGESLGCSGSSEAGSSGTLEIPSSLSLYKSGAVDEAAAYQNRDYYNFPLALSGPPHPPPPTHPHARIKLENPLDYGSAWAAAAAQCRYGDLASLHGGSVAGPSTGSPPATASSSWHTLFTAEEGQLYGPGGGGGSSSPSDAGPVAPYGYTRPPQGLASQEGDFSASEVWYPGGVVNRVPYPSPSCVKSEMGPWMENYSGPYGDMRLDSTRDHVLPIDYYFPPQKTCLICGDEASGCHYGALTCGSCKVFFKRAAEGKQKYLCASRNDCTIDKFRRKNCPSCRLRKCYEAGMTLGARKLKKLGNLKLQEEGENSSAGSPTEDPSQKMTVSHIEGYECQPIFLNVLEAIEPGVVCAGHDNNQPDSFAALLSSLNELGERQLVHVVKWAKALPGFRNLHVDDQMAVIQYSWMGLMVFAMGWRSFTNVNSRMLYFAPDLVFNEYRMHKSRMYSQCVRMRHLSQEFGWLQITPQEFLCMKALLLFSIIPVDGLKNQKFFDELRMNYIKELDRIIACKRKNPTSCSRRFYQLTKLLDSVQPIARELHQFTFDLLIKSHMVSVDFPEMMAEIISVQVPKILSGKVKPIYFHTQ

Another series addresses wild type AR. The note with it: read-out: Kd for [^3H]-DHT; MDA 453 cells (wild type AR), saturation analysis, Scatchard. The procedure: For the saturation analysis, the difference between the total binding and the non-specific binding, is defined as specific binding.
Two replicates are used for each sample. After 4 hours at 37° C., cells are washed, harvested, and counted as described above. […] The K1 values are determined by application of the Cheng-Prusoff equation to the IC50 values, where:
[formula] After correcting for non-specific binding, IC50 values are determined. […] Murine Breast Cell Proliferation Assay

Series [1] is described as follows: stability of the isolated material on storage. The series is classed as physicochemical.
A short description of series [2]: serum T and DHT concentrations after subcutaneous injection. The following applies: over 24 hours.

The results in this text go back to US7468439B2, “Alkylene bridged sultam compounds useful as modulators of nuclear hormone receptor function” (Bristol-Myers Squibb Company, priority 2006, dated 2008).

One may read the Kd as the equilibrium constant for the complex coming apart.

In the case of `CCC(=O)O[C@H]1CC[C@H]2[C@@H]3CCC4=CC(=O)CC[C@]4(C)[C@H]3CC[C@]12C` [TP, testosterone propionate], the “potency relative to free T” value at AR (higher potency than free T) is given as 10-30 fold. This molecule had an ED80 at AR (immature castrated rat model, weights of VP and SV) of 0.1 mg. Besides, the “EC50 (increase in organ weight, VP and SV)” value on AR (immature castrated rats, dosing for 3 days) is listed as around 0.03 mg.

On to “tritiated dihydrotestosterone [[^3H]-DHT]”, for which, at wild type AR, the Kd worked out at 0.7 nM.

Take `N#Cc1ccc(N2C[C@H]3[C@H]4CC[C@H](C4)[C@@]3(COS(=O)(=O)C(F)(F)F)S2(=O)=O)cc1C(F)(F)F` [Example 61, ((1R,2R,6R,7S)-4-(4-cyano-3-(trifluoromethyl)phenyl)-3,3-dioxido-3-thia-4-azatricyclo[5.2.1.0^2,6]dec-2-yl)methyl trifluoromethanesulfonate]: the stability result in series [1] (under an inert atmosphere, unpurified material) was “stable for several weeks under an inert atmosphere”.

As for `C[C@]12CC[C@H]3[C@@H](CCC4=CC(=O)CC[C@@]43C)[C@@H]1CC[C@@H]2O` [T, testosterone], the “course of serum concentrations of T and DHT” value in series [2] was “decline very rapidly”.

Consider `N#Cc1ccc(N2C[C@H]3[C@H]4CC[C@H](C4)[C@@]3(CN=[N+]=[N-])S2(=O)=O)cc1C(F)(F)F` [Example 65, 4-((1R,2R,6R,7S)-2-(azidomethyl)-3,3-dioxido-3-thia-4-azatricyclo[5.2.1.0^2,6]dec-4-yl)-2-(trifluoromethyl)benzonitrile], for which the stability entry in series [1] (ambient conditions) was “prone to decomposition under ambient conditions”.
